Assay results: publication PMC6994260 (Nature chemistry, 2019)

What was measured:
[1] = target: T1, signal peptidase IB (SpsB) (Staphylococcus aureus, UniProt Q5HHB9); assay: FRET-peptide cleavage by endogenous SpsB in S. aureus membranes; format: biochemical; conditions: activator; 50 uM compound, 0.2 mg/mL total membrane protein
T1 sequence (Q5HHB9 1-191): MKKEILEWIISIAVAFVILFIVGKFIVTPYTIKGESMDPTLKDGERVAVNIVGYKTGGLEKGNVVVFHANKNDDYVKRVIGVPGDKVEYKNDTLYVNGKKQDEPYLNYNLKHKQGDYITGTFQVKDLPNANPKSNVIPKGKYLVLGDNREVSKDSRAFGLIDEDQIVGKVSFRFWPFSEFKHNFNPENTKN

[2] = target: T2, demethylmenaquinone methyltransferase (MenG) (Staphylococcus aureus, UniProt P67062); assay: MenG methylation assay in lysate; format: biochemical; conditions: inhibitor; SAM and DMK-2 as substrates, 80 min
T2 sequence (P67062 1-241): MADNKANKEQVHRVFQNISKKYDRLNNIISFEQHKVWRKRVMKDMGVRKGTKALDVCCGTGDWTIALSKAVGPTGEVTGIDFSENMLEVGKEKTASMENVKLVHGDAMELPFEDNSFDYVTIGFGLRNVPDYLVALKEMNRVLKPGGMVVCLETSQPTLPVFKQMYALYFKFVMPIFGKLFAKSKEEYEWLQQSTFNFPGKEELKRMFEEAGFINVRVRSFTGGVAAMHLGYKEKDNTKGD

[3] = target: T2, demethylmenaquinone methyltransferase (MenG); assay: LC-MS of menaquinone-2 formed in lysate; format: biochemical; conditions: S-adenosyl-L-methionine as methyl donor, 80 min
[4] = target: T2, demethylmenaquinone methyltransferase (MenG); conditions: labelled compound; DMK-2 as acceptor, 80 min

| Compound | SpsB activity (normalized) at 50 μM [1] | % MenG activity of DMSO control [2] | also measured |
| --- | --- | --- | --- |
| O=C(Nc1ccc2c(c1)OCO2)Nc1ccc(Cl)c(C(F)(F)F)c1 [1-159] | 1.40 ± 0.01 fold of DMSO control | – | – |
| O=C(Nc1ccc2c(c1)OC(F)(F)O2)Nc1ccc(Cl)c(C(F)(F)F)c1 [PK150] | 2.54 ± 0.39 fold of DMSO control | Menaquinone-2 synthesis was enhanced in MenG-overexpressing cells and again significantly inhibited by PK150 | – |
| CC(C)=CCC/C(C)=C/CC1=CC(=O)c2ccccc2C1=O [DMK-2, demethylmenaquinone-2] | – | – | LC-MS of menaquinone-2 formed in lysate [3]: methylation of non-naturally occurring demethylmenaquinone-2 by lysates of MenG-overexpressing and wild type S. aureus |
| CNC(=O)c1cc(Oc2ccc(NC(=O)Nc3ccc(Cl)c(C(F)(F)F)c3)cc2)ccn1 [SFN, sorafenib] | 1.64 ± 0.12 fold of DMSO control | SFN caused a weaker inhibition in these assays | – |
| C[S+](CC[C@H](N)C(=O)O)C[C@H]1O[C@@H](n2cnc3c(N)ncnc32)[C@H](O)[C@@H]1O (stereo partly drawn) [SAM, S-adenosyl-L-methionine] | – | – | [3H]methyl transfer to DMK-2, liquid scintillation counting [4]: radiolabelled methyl group of cofactor S-adenosyl-L-methionine |
| O=C(Nc1ccc(Cl)c(C(F)(F)F)c1)Nc1cccc2c1OC(F)(F)O2 [1-164] | 1.42 ± 0.08 fold of DMSO control | – | – |
